Measured values: patent US9420770B2, “Methods of modulating thrombocytopenia and modified transgenic pigs” (Indiana University Research and Technology Corporation, priority 2009, dated 2016)

Tests used:
Assay type in all cases: cell-based, pig
[1] = system: Domestic and GTKO/hDAF LSEC cultures; assay: Inhibition of platelet phagocytosis assay: fetuin / asialofetuin, CFSE-labeled human platelets; settings: LSECs from domestic or GTKO/hDAF pigs; 0.5-20 μg/ml; FIG. 15 panel A
Protocol: Fetuin, a glycoprotein composed of sialic acid terminated galactose β1, −4 N-acetylglucosamine (Galβ) oligosaccharides, and asialofetuin, a derivative of fetuin lacking the terminal sialic acid saccharides and with exposed Galβ oligosaccharides were utilized to evaluate platelet binding. Domestic (n=2-5) and GTKO/hDAF (n=5) LSEC cultures were established. Cultures were incubated with 0.5, 2.5, 5, 10 or 20 μg/ml fetuin or asialofetuin. After incubations, CFSE-labeled human platelets were added to the cultures. Platelet binding and phagocytosis was measured using a spectromax plate reader. The percent of platelet binding was calculated.

LSEC = assay: High-throughput fluorescent 96-well phagocytosis assay (ELISA based fluorescent assay) with platelets and LSEC; settings: compound at 5 mg/ml, 0.5 mg/ml or none, FIG. 9 panel B
Protocol: A high-throughput fluorescent 96-well phagocytosis assay was performed using human and baboon platelets and LSEC. The compounds of interest asialofeutin or feutin were added to the samples. Experiments were performed with reduced calcium or in the presence of the chelating agent, EDTA.

ASGR1 mRNA = assay: siRNA reduction of ASGR1: transcript levels by quantitative PCR; settings: 48 hours after siRNA treatment
Protocol: RNA extraction was performed on cultured LSEC and tissues harvested from domestic and GTKO/hDAF pigs. Total RNA was extracted from LSEC and low-fiber tissues using the RNeasy Minikit (Qiagen, Valencia Calif.). RNA from fiber-rich tissue was isolated using the RNeasy fibrous tissue kit (Qiagen, Valencia Calif.). RNA quality was assessed using an Agilent 2100 Bioanalyzer (Biotechnology Research and Training Center IUPUI). Reverse transcription was performed using Quantitect Reverse Transcription kit (Qiagen, Valencia Calif.). Presence/absence experiments of endogenous mRNA were performed on a 9700 Applied Biosystems™ cycler. Products were run using Quantitect Sybr Green (Qiagen, Valencia Calif.). Endogenous mRNA levels were measured by real-time quantitative PCR analysis on a STEP-ONE PLUS (Applied Biosystems™, Carlsbad Calif.) real time PCR system and comparative CT analysis was performed. Gene expression assays for porcine ASGR1 and β-actin AI6RMY and SSO 3376160-u1 (Applied Biosystems™, Carlsbad Calif.) were used. […]
(§1) siRNA sense and antisense oligos were designed to the mRNA sequence of ASGR1 (FIG. 17C). […] ASGR1 transcript levels were determined by quantitative PCR. ASGR1 protein levels were analyzed.

porcine primary LSECs = assay: Platelet phagocytosis assay with siRNA treated LSECs; settings: 48 hours after siRNA treatment, n=3
Protocol: Primary LSECs were cultured in black walled-clear bottomed, cell culture treated 96-well plates (approximately 100,000 cells/well). The plated cells were incubated at 37° C. and 5% CO2 for four, five or six days as indicated. Four million CFSE-labeled platelets were added to wells in 96 well plates containing primary LSEC and media. Plates were centrifuged at 2000×g to synchronize the wells. At predetermined time points, the incubations were stopped. Duplicate wells for each time point were washed with PBS three times. After washing, the cells were incubated with 4% paraformaldehyde-PBS solution for 20 minutes to fix the cells. The wells were washed with PBS. 50 μl PBS was placed in each well. After obtaining the timepoints, the plates were read for fluorescence using a Spectra Max M2e plate reader (Molecular Devices Co.) set to read 9 different points within each well. Wells with LSECs and without CFSE-labeled platelets were used to determine the auto-fluorescence of LSECs. Data points from at least three separate porcine LSEC experiments were averaged and the standard deviation was obtained.
siRNA sense and antisense oligos were designed to the mRNA sequence of ASGR1 (FIG. 17C). […] ASGR1 transcript levels were determined by quantitative PCR. ASGR1 protein levels were analyzed. […]

ASGR1 protein = assay: siRNA reduction of ASGR1: protein levels by immunoblotting; settings: 48 hours after siRNA treatment
Protocol: LSECs were resuspended in Laemmli sample buffer with protease arrest (G-bioscience™, Maryland Heights Mo.). Samples were electrophoresed on SDS-polyacrylamide gels (SDS-PAGE). Polypeptides were transferred to membranes for immunoblot or lectin blot analysis. Membranes were blocked by incubation with 50% Odyssey blocking buffer (LI-COR Biosciences™, Lincoln Nebr.) in phosphate buffered saline (PBS) for approximately one hour. Membranes were incubated with anti-ASGR1 (Santa Cruz Biotechnologies™, Santa Cruz Calif.), anti-GAPDH (Millipore™, Billerica Mass., MAB374), anti-β-actin (Rockland Immunochemicals for Research, Gilbertsville Pa.), or anti-CD42b (Santa Cruz Biotechnologies™, SC-13467) according to the manufacturer's recommended protocol. Membranes were also incubated with ECA-biotin (EY Laboratories San Mateo Calif.) in a calcium containing buffer. Following primary antibody or lectin binding, membranes were washed. Membranes were incubated with the appropriate secondary antibody or streptavidin conjugated to either IRDye 800CW or IRDye680CW (LI-Cor Biosciences™). […] Protein bands were quantified by intensity using the LI-COR software.
as §1

In the case of asialofetuin, the “percent of human platelet binding by LSECs” value [1] was “significantly reduced”, the “inhibition of binding of baboon platelets (RFI)” value (LSEC) was “inhibits binding” and the “inhibition of binding of human platelets (RFI)” value (LSEC) was “inhibits binding”.

For Fetuin, the “inhibition of binding of baboon platelets (RFI)” value (LSEC) was “not feutin inhibits binding” and the “inhibition of binding of human platelets (RFI)” value (LSEC) was “not feutin inhibits binding”.

With “ASGR1 siRNA: double-stranded siRNA to ASGR1 mRNA; sense strand SEQ ID NO:11, antisense strand SEQ ID NO:12 (sense CAGCAUGCAGGGAGGAAAUUU; antisense AUUUCCUCCCUGCAUGCUGUU; chemistry not given here)” the “ASGR1 mRNA levels relative to non-specifically treated cells (siGenome)” value (ASGR1 mRNA; GTKO/hDAF LSECs) was 20%, the “ASGR1 mRNA levels relative to non-specifically treated cells (siGenome)” value (ASGR1 mRNA; domestic LSECs) was 56% and the “platelet phagocytosis compared to siGenome transfected LSECs” value (porcine primary LSECs; GTKO/hDAF LSECs) was 69%. The “platelet phagocytosis compared to siGenome transfected LSECs” value (porcine primary LSECs; domestic LSECs) was 79%, the “ASGR1 protein levels relative to non-specifically treated cells (siGenome)” value (ASGR1 protein; GTKO/hDAF LSECs) was 87% and the “ASGR1 protein levels relative to non-specifically treated cells (siGenome)” value (ASGR1 protein; domestic LSECs) was 80%.
